Results published in ChEMBL document CHEMBL1156829 (Proc Natl Acad Sci U S A, 2008).

Key:
[1] = test system: Plasmodium falciparum; test: NOVARTIS: Inhibition of Plasmodium falciparum 3D7 (drug-susceptible) proliferation in erythrocyte-based infection assay; format: functional, organism-based; conditions: Plasmodium falciparum, 3D7
[2] = test system: Plasmodium falciparum; test: NOVARTIS: Inhibition of Plasmodium falciparum W2 (drug-resistant) proliferation in erythrocyte-based infection assay; format: functional, organism-based; conditions: Plasmodium falciparum, W2; read-out: EC50
[3] = NOVARTIS: Cytotoxicity against human hepatocellular carcinoma cell line (Huh7); format: toxicity, cell-based, Huh-7; conditions: Huh7 cells (hepatocellular carcinoma cell line)

Structure (SMILES)	EC50 [1] [µM]	EC50 [2] [µM]	CC50 [3] [µM]
COc1ccc(C2CC(=O)C3=C(C2)NC(C)=C(C(=O)OC2CCCC2)C3c2ccc(Cl)cc2Cl)cc1 (stereo not given)	0.126	0.0347	> 100
c1ccc(C[n+]2ccc(-c3nc4ccccc4s3)cc2)cc1	1.85	1.48	> 100
CS(=O)(=O)Nc1cccc(-c2cnc(N)c(-c3ccc(C(=O)N4CCOCC4)cc3)n2)c1	> 0.976	> 1.25	> 10
COc1ccc([N+](=O)[O-])cc1NC(=O)C(C)Nc1ccc(N(C)C)cc1 (stereo not given)	0.343	0.86	34.2
Cc1c(NC(=O)C2c3ccccc3C(=O)N3CCc4ccccc4C23)cccc1[N+](=O)[O-] (stereo not given)	4.07	1.52	> 100
O=C(CSc1nc2cc3c(cc2c(=O)n1Cc1ccco1)OCO3)Nc1cc(C(F)(F)F)ccc1Cl	0.247	0.326	> 100
CC(=O)N(C1=C(N2CCOCC2)C(=O)c2ccccc2C1=O)c1cccc(Cl)c1	0.214	0.187	4.72
CC(=O)N1CCc2cc(Br)cc(S(=O)(=O)N3CCCC(C)C3)c21 (stereo not given)	> 1.73	1.32	> 10
CCCCCCCN(CCCCCCC)CC(O)c1cc2ccccc2c2cc(Br)ccc12 (stereo not given)	0.867	0.137	> 4.63
CCC(C)NC(=O)c1nn(-c2ccc(OC)cc2)c(=O)c2ccccc12 (stereo not given)	0.798	0.353	> 100
CSc1oc(C(C)(C)C)nc1[P+](c1ccccc1)(c1ccccc1)c1ccccc1	0.296	0.438	6.82
CCCCCC(=O)Oc1ccccc1-c1nc2ccccn2c1NC(C)(C)CC(C)(C)C	0.701	0.0195	> 10
CC(C)c1ccc(NC(=O)C(Cc2cccs2)c2nnn[nH]2)cc1 (stereo not given)	11.3	1.57	> 100
CCN(CC)c1ccc(NC(=O)C2Cc3ccccc3CN2S(=O)(=O)c2ccc(F)cc2)cc1 (stereo not given)	7.43	4.53	> 100
Cc1cc(C)n(-c2ccc(NC(=O)C3CCN(Cc4ccncc4)CC3)cc2)n1	1.28	1.48	> 100
Cc1ccc(C2CC(=O)N3CN(c4ccc(Br)cc4)CSC3=C2C#N)o1 (stereo not given)	> 12.5	1.35	> 100
COc1ccc(N2CCN(c3ncnc4sc(C(=O)NCc5cccnc5)c(C)c34)CC2)cc1	> 11.2	> 8.11	20.7
CN(C)c1nnc(/C(C#N)=C/c2cc(C(=O)c3cccc(Cl)c3)cn2C)o1	0.936	> 1.25	> 10

Structure (SMILES)	EC50 [1] [µM]	EC50 [2] [µM]	CC50 [3] [µM]
Cc1n(-c2ccccc2)c2c([n+]1C)C(=O)c1ccccc1C2=O	0.00655	0.0129	0.427
O=C1c2ccccc2-c2nc3nnnn3nc21	0.239	0.0987	> 10
CCOc1cc(C(Nc2cc(C)ccn2)c2ccc3cccnc3c2O)ccc1OCc1ccccc1 (stereo not given)	> 1.34	1.03	> 10
COc1cc(C2C(C(=O)OCCc3ccccc3)=C(C)NC3=C2C(=O)CC(c2ccc(Cl)cc2)C3)ccc1OCc1ccccc1 (stereo not given)	6.94	1.58	> 100
O=C(NN=CC(Br)=Cc1ccccc1)c1ccc(F)cc1	0.981	0.618	> 10
CCOC(=O)c1cnc2ccc(C(C)C)cc2c1O	1.15	1.14	> 100
O=C(O)C=CC(=O)N(C1CCCCC1)C1CCCCC1	> 12.5	1.86	> 100
O=C(C=Cc1ccccc1)Nc1ccc(-c2nc3cc(NC(=O)C=Cc4ccccc4)ccc3[nH]2)cc1	0.056	0.116	5.7
O=[N+]([O-])c1ccc(-c2cn3nc(C(F)(F)F)sc3n2)cc1	1.05	0.818	> 10
CCOC(=O)C1=C(C)NC2=C(C(=O)CC(c3ccc(Cl)cc3)C2)C1c1ccc(Br)cc1 (stereo not given)	0.378	0.116	> 100
CCCC(=O)NC(c1cccc([N+](=O)[O-])c1)c1ccc2cccnc2c1O (stereo not given)	0.32	0.125	38.8
COc1ccc(Nc2nc3nonc3nc2NN=Cc2cc(Cl)ccc2O)cc1	1.78	1.62	> 3.17
Cc1cc(Nc2ccccc2)nc(Nc2ccccc2)n1	0.259	0.248	20
CCc1nnc2n1N(C(C)=O)C(c1ccc(Cl)c(Cl)c1)=C(C(C)=O)S2	> 1.25	> 0.835	> 10
CC(C)C(=O)NC(Nc1ccc([N+](=O)[O-])cc1)C(Cl)(Cl)Cl (stereo not given)	0.195	0.104	68.3
Cc1cc(NC2CCCCC2)nc(NCc2ccccc2)n1	0.296	0.364	7.87
CCN1CCN(C2CCN(Cc3cc4ccc(F)cc4n(CCSc4ccccc4)c3=O)CC2)CC1	0.715	0.56	5.48
